Laboratory results published in PubChem BioAssay (NCI).
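Values below derive from 48-hour exposures of cells grown in 96-well plates, with endpoints linearly interpolated between the two concentrations bracketing the appropriate inhibition level. TGI is the concentration that stops growth completely.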

Legend:
Experiment in all cases: NCI anticancer screen, dose series, 48 h
HCT-116 colon = test system: HCT-116 colon
NCI-H460 lung = test system: NCI-H460 lung
786-0 renal = test system: 786-0 renal
SF-295 CNS = test system: SF-295 CNS
HOP-62 NSCLC = test system: HOP-62 NSCLC
MDA-N = test system: MDA-N
OVCAR-3 ovarian = test system: OVCAR-3 ovarian
MOLT-4 leukemia = test system: MOLT-4 leukemia
COLO 205 colon = test system: COLO 205 colon
SK-MEL-2 melanoma = test system: SK-MEL-2 melanoma
SK-OV-3 ovarian = test system: SK-OV-3 ovarian
U251 CNS = test system: U251 CNS
M14 melanoma = test system: M14 melanoma
LOX IMVI melanoma = test system: LOX IMVI melanoma
HOP-92 NSCLC = test system: HOP-92 NSCLC
TK-10 renal = test system: TK-10 renal
HT29 colon = test system: HT29 colon
SNB-75 CNS = test system: SNB-75 CNS
SK-MEL-5 melanoma = test system: SK-MEL-5 melanoma
BT-549 breast = test system: BT-549 breast
IGROV1 ovarian = test system: IGROV1 ovarian
MCF7 breast = test system: MCF7 breast
MALME-3M melanoma = test system: MALME-3M melanoma
NCI-H23 lung = test system: NCI-H23 lung
SK-MEL-28 melanoma = test system: SK-MEL-28 melanoma
HCC-2998 colon = test system: HCC-2998 colon
K-562 leukemia = test system: K-562 leukemia
SF-268 CNS = test system: SF-268 CNS
NCI/ADR-RES ovarian = test system: NCI/ADR-RES ovarian
OVCAR-4 ovarian = test system: OVCAR-4 ovarian
PC-3 prostate = test system: PC-3 prostate
KM12 colon = test system: KM12 colon
NCI-H522 lung = test system: NCI-H522 lung
A549 NSCLC = test system: A549 NSCLC
SNB-19 CNS = test system: SNB-19 CNS
OVCAR-8 ovarian = test system: OVCAR-8 ovarian
ACHN renal = test system: ACHN renal
MDA-MB-435 = test system: MDA-MB-435
SF-539 CNS = test system: SF-539 CNS
T-47D breast = test system: T-47D breast
MDA-MB-231 breast = test system: MDA-MB-231 breast
UO-31 renal = test system: UO-31 renal
UACC-62 melanoma = test system: UACC-62 melanoma
CCRF-CEM leukemia = test system: CCRF-CEM leukemia
EKVX NSCLC = test system: EKVX NSCLC
HS 578T breast = test system: HS 578T breast
HCT-15 colon = test system: HCT-15 colon
SR leukemia = test system: SR leukemia
DU-145 prostate = test system: DU-145 prostate
HL-60(TB) leukemia = test system: HL-60(TB) leukemia
OVCAR-5 ovarian = test system: OVCAR-5 ovarian
UACC-257 melanoma = test system: UACC-257 melanoma
SN12C renal = test system: SN12C renal
RPMI-8226 leukemia = test system: RPMI-8226 leukemia
SW-620 colon = test system: SW-620 colon
CAKI-1 renal = test system: CAKI-1 renal
NCI-H226 lung = test system: NCI-H226 lung

Measured: TGI

Cc1cnc2c(c1)C(=O)N(c1ccc(Oc3ccccc3)cc1)S2(=O)=O
> 100 µM: HCT-116 colon | NCI-H460 lung | 786-0 renal | SF-295 CNS | HOP-62 NSCLC | MDA-N | OVCAR-3 ovarian | MOLT-4 leukemia | COLO 205 colon | SK-MEL-2 melanoma | SK-OV-3 ovarian | U251 CNS | M14 melanoma | LOX IMVI melanoma | HOP-92 NSCLC | TK-10 renal | HT29 colon | SNB-75 CNS | SK-MEL-5 melanoma | BT-549 breast | IGROV1 ovarian | MCF7 breast | MALME-3M melanoma | NCI-H23 lung | SK-MEL-28 melanoma | HCC-2998 colon | K-562 leukemia | SF-268 CNS | NCI/ADR-RES ovarian | OVCAR-4 ovarian | PC-3 prostate | KM12 colon | NCI-H522 lung | A549 NSCLC | SNB-19 CNS | OVCAR-8 ovarian | ACHN renal | MDA-MB-435 | SF-539 CNS | T-47D breast | MDA-MB-231 breast | UO-31 renal | UACC-62 melanoma | CCRF-CEM leukemia | EKVX NSCLC | HS 578T breast | HCT-15 colon | SR leukemia | DU-145 prostate | HL-60(TB) leukemia | OVCAR-5 ovarian | UACC-257 melanoma | SN12C renal | RPMI-8226 leukemia | SW-620 colon | CAKI-1 renal | NCI-H226 lung
